Experimental data published in US20110104145A1, “METHOD FOR THE TREATMENT OR PROPHYLAXIS OF CHRONIC INFLAMMATORY DISEASES” (priority 2008, published 2011).

System: binding between IgA and CD89
Experiment: Blocking assay: two-dimensional polymorphonuclear cell migration to IgA-coated beads
Format: cell-based, human
Conditions: PKH67-polymorphonuclear cells, blocker 1-100 μg/ml, 20' at 37° C., assay of example 4
Description: FIG. 6. IgA-induced migration can be reduced by interfering with IgA-CD89 interactions. Percentage inhibition of polymorphonuclear cell migration in the presence of 3 different anti-FcαRI mAb (white bars), 6 peptides that mimic either the IgA binding site on CD89 or the CD89 binding site on IgA (black bars) or a soluble variant of CD89 or FcαRI (sFcalphaRI, grey bar).
PKH67-polymorphonuclear cells (2.5×10^5 cells/well) were seeded in 96 wells flat bottom plates (Greiner), after which immunoglobulin-coated beads (10 μl/well) were added. For binding assays, cells were kept at 4° C. For migration assays, cells were incubated for 20′ 37° C., after which cell suspensions were collected and beads were washed 2 times with PBS to remove unbound PKH67-polymorphonuclear cells. Beads were incubated with a buffer containing 2.0 g/l hexadecyltrimethyl ammonium bromide, 1.0 g/l tween 20, 2.0 g/l BSA and 7.44 g/l EDTA in PBS to lyse bound PKH67-polymorphonuclear cells. Fluorescence was measured using 485 excitation and 520 emission filters (Fluostar Galaxy, BMG Labtechnologies, Offenburg, Germany).
The blocking potential of anti-FcαRI antibodies and/or sFcαRI and/or peptides that mimic either the IgA binding site on CD89 or the CD89 binding site on IgA was investigated using a 2-dimensional polymorphonuclear cells migration assay as detailed in example 4. For that purpose, PKH67-polymorphonuclear cells were incubated with different concentrations (ranging from 1-100 μg/ml in RPMI) of either anti-FcαRI blocking antibodies or with peptides mimicking the IgA binding site on CD89 for 20 minutes at 37° C. IgA-coated beads were incubated with different concentrations (ranging from 1-100 μg/ml in RPMI) of peptides mimicking the CD89 binding site on IgA for 20 minutes at 37° C. PKH67-polymorphonuclear cells (2.5×10^5 cells/well) that had not been incubated (as control) or PKH67-polymorphonuclear cells that had been incubated with blocking antibodies or peptides were seeded in 96 wells flat bottom plates (Greiner). Either non-incubated IgA-coated beads, or IgA-coated beads that had been incubated with peptides were added (10 μl/well). Cells were then incubated for 20′ at 37° C., after which cell suspensions were collected and beads were washed 2 times with PBS to remove unbound PKH67-polymorphonuclear cells. Beads were incubated with a buffer containing 2.0 g/l hexadecyltrimethyl ammonium bromide, 1.0 g/l Tween 20, 2.0 g/l BSA and 7.44 g/l EDTA in PBS to lyse bound PKH67-polymorphonuclear cells. Fluorescence was measured using 485 excitation and 520 emission filters (Fluostar Galaxy, BMG Labtechnologies, Offenburg, Germany) to determine the number of polymorphonuclear cells that had bound to IgA-coated beads. Percentage blocking was determined using the following equation: 100−(number of bound cells in blocking situation/number of bound cells without blocking×100) %.

Compound	blocking of the interaction between IgA and CD89
EDLLLGSEA [IgA CH2]	up to 23%
REIGRRLKFWNETDP [Fc alpha 113]	up to 19%

Same assay, conditions: polymorphonuclear cells

Compound	blocking of the IgA-CD89 interaction / reduction of polymorphonuclear cell migration to IgA-beads (in words)
AQAIREAYL	performed well
GRYQCQYRIGHYRFRYSD [Sym-060]	performed somewhat less but was still found useful
LKFWNETDP	performed well
SCMVGHEALPLAFTQCT [PEO-46#7,8]	provided good results
YRIGHYRFR	performed well
sFcαRI: soluble form of FcαRI: extracellular part (ecto domain) of FcαRI expressed in 293T cells	efficiently block the interaction

System: polymorphonuclear cells
Experiment: Chemotaxis assay with supernatants of IgA-bead migration experiments
Format: cell-based, human
Conditions: mAb 100 μg/ml; U75302 10 μM in ethanol; 40 minutes at 37° C.
Description: B) Supernatant was collected after addition of IgA-beads, and migration of freshly isolated polymorphonuclear cells to collected supernatant was measured in the presence of anti-BLTR1 (LTB4 receptor), anti-IL-8 or an isotype mAb control. Additionally, either an LTB4 receptor antagonist (U75302 in ethanol) or ethanol alone was added. Migration to supernatant in the absence of inhibitors was set at 100%.
Chemotaxis assays were essentially performed as described (Frevert et al., J. Immunol. Methods 213, 41 (1998)), modified for use in a 48 well Neuroprobe blind well chemotaxis chamber (Gaithersburg, Md.). Briefly, bottom wells were filled with supernatants of migration experiments (25 μl), and covered with a 3 μm pore polycarbonate filter (Neuroprobe). Purified LTB4 (Sigma) or IL-8 (Peprotech, Rocky Hill, N.J.) were used as positive controls. Top wells were filled with 50 μl calcein AM-labeled polymorphonuclear cells (1×10^6/ml). After a 40 minutes incubation period at 37° C., cells that had migrated towards the lower compartments were quantified with a fluorimeter (485 excitation/520 emission filters). To inhibit IL-8 mediated migration, experiments were conducted in the presence of 100 μg/ml blocking anti-IL-8 mAb (BD Biosciences). LTB4-mediated migration was investigated by blocking LTB4 receptors with 100 μg/ml anti-BLTR1 mAb (BD Biosciences). […]

Compound	chemotactic activity of supernatant of IgA-bead migration experiments
CCCCC/C=C\C[C@@H](O)/C=C/c1cccc(C[C@@H](O)CCCCO)n1 [receptor antagonist, U75302]	reduced

System: polymorphonuclear cells
Experiment: Human skin migration assay (ex vivo skin graft, IgA-coated beads)
Format: cell-based
Conditions: ex vivo mammary skin graft, beads injected intracutaneously, overnight at 37° C.
Description: A full thickness mammary skin graft (epidermis and dermis) was placed in an ex-vivo tissue incubation chamber (method adapted from Oosterling, S J et al. Ann Surg. 2008; 247(1):85-94). 5 μl of IgA- or BSA-coated beads (17.5 μg/μl) were injected intracutaneously via the dermis, followed by addition of PKH-67 labeled polymorphonuclear cells (4×10^6 cells/well) to the wells. Due to the short half-life of polymorphonuclear cells after isolation, cells were supplemented with IFN-γ (300 units/ml; Boehringer Ingelheim, Alkmaar, The Netherlands). Skin was incubated overnight at 37° C. Biopsies of the injected skin were taken and snap frozen. Sections of biopsies were analysed with bright field and fluorescence microscopy.

Compound	migration of polymorphonuclear cells to IgA-coated beads in human skin
GRYQAQYRIGHYRFRYSD [PEO-50#8,9, EF loop peptide (CD89 75-92)]	completely prevent migration
SSMVGHEALPLAFTQKT [PEO-45#7,8, 17-mer stretch (amino acids 431-447) selected from the Fc region of IgA]	completely prevent migration
sFcαRI: soluble form of FcαRI: extracellular part (ecto domain) of FcαRI expressed in 293T cells	completely prevent migration
